Test results published in US20110288082A1, “METHODS AND COMPOSITIONS FOR INHIBITION OF THE TRANSITIONAL ENDOPLASMIC RETICULUM ATPASE” (priority 2010, published 2011).
Read-outs that look alike come from different tables or passages of the source.

Tests used:
p97 = p97 (Homo sapiens, UniProt P55072); experiment: p97 ATPase assay (Kinase Glo Plus; biomol green for compounds that interfere with luciferase); assay type: biochemical
Method: Assay Buffer (20 μL of 2.5× concentration, where 1×=50 mM Tris pH 7.4, 20 mM MgCl2, 1 mM EDTA, 0.5 mM TCEP) was dispensed into each well of a 96 well plate. Purified p97 (25 μL of 50 μM) was diluted in 975 μL, of 1× Assay Buffer and 10 μL was dispensed in each well. Test compound (10 μL) or 5% DMSO (10 μL) was then added to each well and the plate was incubated at room temperature for 10 min. The ATPase assay was carried out by adding to each well 10 μL of 500 μM ATP (pH 7.5), incubating at room temperature for 60 min, and then adding 50 μL Kinase Glo Plus reagent (Promega) followed by a final 10 min incubation at room temperature in the dark. Luminescence was read on an Analyst AD (Molecular Devices). Compounds were assayed at a range of concentrations (0, 0.048, 0.24, 1.2, 6, 30 μM) in triplicate. The percent of remaining activity for each reaction was calculated using the following mathematical expression: ((Test Compound-High Control)/(Low Control-High Control))*100. Test_Compound is defined as wells containing test compound, Low_Control is defined as wells containing DMSO, High_Control is defined as wells containing no p97 protein. […] The result was expressed as mean +/− standard error. For assays with Myriad 12 and 19, 100 μL of biomol green reagent (Enzo Life Sciences) was added to each well instead of kinase Glo Plus (Promega) and absorbance at 630 nm was measured. This was done because these compounds interfered with luciferase activity. […]

[1] = system: p97-dependent Ub^G76V-GFP degradation in HeLa cells; experiment: Ub^G76V-GFP degradation (turn-over) assay; assay type: cell-based, human; settings: Homo sapiens, HeLa
Method: Ub^G76V-GFP Degradation Assay
Two GFP images with 100 ms exposure time per well were acquired and the average GFP intensity per area of a HeLa cell was determined by using MetaXpress software. Mean GFP intensity of 300-500 cells was calculated using Excel. Normalized GFP intensity was calculated using the following formula: (Test compound−Background)/(Basal GFP intensity—Background). Where: Test compound is defined as Mean GFP intensity of Ub^G76V-GFP-expressing cells treated with the test compound. Background is defined as background GFP intensity of HeLa cells. Basal GFP intensity is defined as mean GFP intensity of Ub^G76V-GFP-expressing cells treated with DMSO. […] The percent of remaining k for each compound is calculated using the following formula: (Test compound/DMSO control)*100. Where: Test_compound is defined as k determined from wells containing test compound, DMSO control is defined as k determined from wells containing DMSO.

[2] = purified p97, ATP, 60 min room temperature, mean +/- standard error
[3] = read-out: IC50 (μM) Ub^G76V-GFP turn over, Ub^G76V-GFP-expressing HeLa cells, degradation rate constant k from 90 to 180 min, mean +/- standard error
[4] = read-out: IC50 (μM) Ub^G76V-GFP turn over, p97-dependent Ub^G76V-GFP degradation turn-over assay

Sequence of p97 (P55072 2-806 limits assumed): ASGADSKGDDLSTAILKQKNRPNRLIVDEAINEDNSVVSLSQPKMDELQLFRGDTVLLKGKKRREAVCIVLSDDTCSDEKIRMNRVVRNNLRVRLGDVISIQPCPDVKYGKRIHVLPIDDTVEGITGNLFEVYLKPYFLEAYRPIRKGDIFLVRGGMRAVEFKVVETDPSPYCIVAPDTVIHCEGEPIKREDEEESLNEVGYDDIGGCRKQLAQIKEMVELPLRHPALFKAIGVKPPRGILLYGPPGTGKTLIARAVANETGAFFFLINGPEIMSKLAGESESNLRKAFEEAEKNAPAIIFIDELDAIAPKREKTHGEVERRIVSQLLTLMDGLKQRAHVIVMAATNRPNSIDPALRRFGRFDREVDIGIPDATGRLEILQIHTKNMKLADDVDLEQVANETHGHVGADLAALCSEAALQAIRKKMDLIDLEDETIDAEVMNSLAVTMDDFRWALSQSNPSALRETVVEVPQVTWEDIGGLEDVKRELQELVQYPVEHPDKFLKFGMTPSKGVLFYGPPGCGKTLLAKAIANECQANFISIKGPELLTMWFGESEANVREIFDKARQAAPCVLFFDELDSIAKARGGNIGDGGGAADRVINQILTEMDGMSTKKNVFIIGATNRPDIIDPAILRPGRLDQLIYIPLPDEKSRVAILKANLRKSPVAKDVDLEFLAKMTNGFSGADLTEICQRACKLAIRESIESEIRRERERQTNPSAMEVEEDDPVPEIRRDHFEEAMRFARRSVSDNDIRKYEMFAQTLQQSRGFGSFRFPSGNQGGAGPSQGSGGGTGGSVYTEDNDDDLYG

Compound | IC50 (p97; [2]) [µM] | IC50 [1, 3] [µM] | IC50 (p97; p97 ATPase assay) [µM] | IC50 [1, 4] [µM]
Cc1c(Cl)cccc1Nc1nc(NCc2ccccc2)c2ccccc2n1 [V-5] | 0.7 ± 0.1 | 5.5 ± 1 |  | 
Cc1ccc(F)cc1Nc1nc(NCc2ccccc2)c2ccccc2n1 [V-6] | 0.8 ± 0.1 | 5 ± 1 |  | 
Cc1ccc(Nc2nc(NCc3ccccc3)c3ccccc3n2)cc1F [V-7] | 0.9 ± 0.2 | 5.2 ± 1.2 |  | 
COc1ccc(Nc2nc(NCc3ccccc3)c3ccccc3n2)cc1F [V-8] | 0.9 ± 0.1 | 4.7 ± 0.8 |  | 
Cc1ccc(Cl)cc1Nc1nc(NCc2ccccc2)c2ccccc2n1 [V-9] | 0.8 ± 0.07 | 7 ± 1.5 |  | 
COc1ccc(Cl)cc1Nc1nc(NCc2ccccc2)c2ccccc2n1 [V-10] | 1.1 ± 0.2 | 16 ± 6 |  | 
COc1ccc(F)cc1Nc1nc(NCc2ccccc2)c2ccccc2n1 [V-11] | 6.7 ± 3 | 9.3 ± 1 |  | 
Clc1cccc2nc(NCc3ccccc3)nc(NCc3ccccc3)c12 [VI-1] | 2.2 ± 0.7 | 16 ± 2 |  | 
Fc1cccc2nc(NCc3ccccc3)nc(NCc3ccccc3)c12 [VI-2] | 1.2 ± 0.3 | 13 ± 2 |  | 
Clc1ccc2nc(NCc3ccccc3)nc(NCc3ccccc3)c2c1 [VI-3] | 1.6 ± 0.4 | 6.6 ± 0.9 |  | 
COc1cc2nc(NCc3ccccc3)nc(NCc3ccccc3)c2cc1OC [VI-4] | 4.4 ± 1.8 | 8.8 ± 1.5 |  | 
COc1cccc2c(NCc3ccccc3)nc(NCc3ccccc3)nc12 [VI-5, N2,N4-dibenzyl-8-methoxyquinazoline-2,4-diamine] | 0.6 ± 0.06 | 10 ± 2 |  | 
Cc1ccc2c(NCc3ccccc3)nc(NCc3ccccc3)nc2c1 [VI-6] | 2.2 ± 0.4 | 6.1 ± 1.6 |  | 
FC(F)(F)c1ccc2c(NCc3ccccc3)nc(NCc3ccccc3)nc2c1 [VI-7] | 9.1 ± 2 | 19 ± 1 |  | 
N#Cc1ccc2c(NCc3ccccc3)nc(NCc3ccccc3)nc2c1 [VI-8] |  |  | 25 ± 10 | 21 ± 3
Fc1cccc2c(NCc3ccccc3)nc(NCc3ccccc3)nc12 [VI-10] | 3.1 ± 0.5 | 18 ± 2 |  | 
Fc1ccc2c(NCc3ccccc3)nc(NCc3ccccc3)nc2c1 [VI-11] | 2.6 ± 0.5 | 6.1 ± 0.8 |  | 
Clc1ccc2c(NCc3ccccc3)nc(NCc3ccccc3)nc2c1 [VI-12] | 5.5 ± 0.9 | 6.3 ± 0.9 |  | 
COc1ccc2c(NCc3ccccc3)nc(NCc3ccccc3)nc2c1 [VI-13] | 5.7 ± 1 | 42 ± 6 |  | 
COc1ccc2nc(NCc3ccccc3)nc(NCc3ccccc3)c2c1 [VI-14] | 7.5 ± 1.1 | 8.6 ± 1.7 |  | 
Fc1ccc2nc(NCc3ccccc3)nc(NCc3ccccc3)c2c1 [VI-15] | 4.7 ± 0.4 | 8.2 ± 1.5 |  | 
Brc1ccc2c(NCc3ccccc3)nc(NCc3ccccc3)nc2c1 [VI-16] |  |  | 22 ± 4 | 10 ± 2
c1ccc(CNc2nc(N3CCCc4ccccc43)nc3ccccc23)cc1 [VII-1] | 4.4 ± 1.8 | 10 ± 2 |  | 
c1ccc(CNc2nc(N3CCc4ccccc43)nc3ccccc23)cc1 [VII-2] | 2 ± 0.5 | 11 ± 3 |  | 
c1ccc(CNc2nc(N3CCOc4ccccc43)nc3ccccc23)cc1 [VII-3] | 0.6 ± 0.2 | 7 ± 1.9 |  | 
c1ccc(CNc2nc(N3CCNc4ccccc43)nc3ccccc23)cc1 [VII-4] | 0.4 ± 0.05 | 6.3 ± 1 |  | 

Compound | IC50 (p97; [2]) [µM] | IC50 [1, 3] [µM] | IC50 (p97; p97 ATPase assay) [µM] | IC50 [1, 4] [µM]
COc1cccc2c(NCc3ccccc3)nc(N3CCNc4ccccc43)nc12 [VII-5] | 0.9 ± 0.1 | 3.7 ± 0.2 |  | 
COc1cccc2c(NCc3ccccc3)nc(N3CCOc4ccccc43)nc12 [VII-6] | 0.2 ± 0.02 | 3.3 ± 0.4 |  | 
Oc1cccc2c(NCc3ccccc3)nc(N3CCOc4ccccc43)nc12 [VII-7] | 1.2 ± 0.3 | 7.7 ± 1.7 |  | 
c1ccc(CNc2nc(N3CCOc4ccccc43)nc3c(-c4ccccc4)cccc23)cc1 [VII-8] | 3.5 ± 0.6 | 5 ± 0.9 |  | 
OCCOc1cccc2c(NCc3ccccc3)nc(N3CCOc4ccccc43)nc12 [VII-9] | 0.17 ± 0.05 | 3.8 ± 0.8 |  | 
CCN(CC)CCOc1cccc2c(NCc3ccccc3)nc(N3CCOc4ccccc43)nc12 [VII-10] | 0.4 ± 0.08 | 5.3 ± 0.6 |  | 
COc1ccc(-c2cccc3c(NCc4ccccc4)nc(N4CCOc5ccccc54)nc23)cc1 [VII-11] | 1.1 ± 0.1 | 9 ± 1 |  | 
COc1cccc2c(NCc3ccccc3)nc(N3CCN(C)c4ccccc43)nc12 [VII-12] | 3.1 ± 0.5 | 7.8 ± 0.7 |  | 
COc1cccc2c(NCc3ccccc3)nc(N3CCN(C(C)=O)c4ccccc43)nc12 [VII-13] | 2.7 ± 0.6 | 8 ± 1 |  | 
COCCOc1cccc2c(NCc3ccccc3)nc(N3CCOc4ccccc43)nc12 [VII-14] | 0.6 ± 0.03 | 6.5 ± 0.7 |  | 
CCCCc1cccc2c(NCc3ccccc3)nc(N3CCOc4ccccc43)nc12 [VII-15] |  |  | 2.63 ± 0.7 | 28 ± 3
COc1cccc2c(NCc3ccccc3)nc(-n3c(N)nc4ccccc43)nc12 [VII-16] | 0.11 ± 0.03 | 0.9 ± 0.1 |  | 
COc1cccc2c(NCc3ccccc3)nc(-n3c(=O)oc4ccccc43)nc12 [VII-17] | 0.11 ± 0.03 | 5 ± 1 |  | 
c1ccc(CNc2nc(N3CCOc4ccccc43)nc3c2CCCC3)cc1 [VIII] | 0.11 ± 0.03 | 3.5 ± 0.4 |  | 
COc1cccc2c(NCc3ccccc3)nc(-n3cnc4ccccc43)nc12 [XI-1] | 3.3 ± 1.1 | 78 ± 45 |  | 
COc1cccc2c(NCc3ccccc3)nc(N3CCOCC3)nc12 [XI-2] |  |  | 31 ± 7 | 47 ± 9
COc1cccc2c(NCc3ccccc3)nc(NC(N)=O)nc12 [XI-3] |  |  | 49 ± 10 | 108 ± 31
COc1cccc2c(NCc3ccccc3)nc(N3CCN(C)CC3)nc12 [XI-4] |  |  | > 30 | 45 ± 18
COc1cccc2c(NCc3ccccc3)nc(Nc3nc4ccccc4s3)nc12 [XI-5] | 0.5 ± 0.2 | 14 ± 2 |  | 
COc1cccc2c(NCc3ccccc3)nc(Nc3nc4ccccc4n3C)nc12 [XI-6] | 0.3 ± 0.07 | 7.8 ± 1.2 |  | 
COc1cccc2c(NCc3ccccc3)nc(NC(=O)N(C)C)nc12 [XI-7] |  |  | 60 ± 23 | 37 ± 7
COc1cccc2c(NCc3ccccc3)nc(N3CCc4ccccc4C3)nc12 [XI-8] | 15 ± 3 | 7 ± 1.3 |  | 
COc1cccc2c(NCc3ccccc3)nc(N(C)c3ccccc3)nc12 [XI-9] |  |  | > 30 | 9.2 ± 1.2
COc1cccc2c(NCc3ccccc3)nc(Nc3ccccc3O)nc12 [XI-10] | 2.6 ± 0.4 | 2.8 ± 0.5 |  | 
COc1cccc2c(NCc3ccccc3)nc(NC(C)c3ccccc3)nc12 (centres unmarked) [XI-11] | 12 ± 5 | 2.1 ± 0.7 |  | 
COc1cccc2c(NCc3ccccc3)nc(N(C)Cc3ccccc3)nc12 [XI-12] | 7 ± 3 | > 20 |  | 
